Data on one substance can be found in patent US20010023252A1, “Novel compound” (SmithKline Beecham Plc, priority 1998, published 2001).

This data set is described as follows: Aqueous solubility of the salt (stated in words). It counts as physicochemical. Conditions: water, compared with the hydrochloride salt.

As for paroxetine methanesulfonate, the “aqueous solubility (in words)” value is “highly water soluble”. For the same substance, the “aqueous solubility (in words)” value (listed as methanesulfonate salt of paroxetine) is on record as “significantly more soluble than the hydrochloride salt”.
